The text below walks through data of patent publication US8957084B2, “7,8-cyclicmorphinan analogs” (Purdue Pharma L.P., priority 2012, dated 2015).

In assay [1] the target is recombinant human kappa opioid receptor (κ) (Homo sapiens (Human), UniProt P41145). Briefly: κ-opioid receptor radioligand dose-displacement binding assay ([3H]-U69,593). To be noted: [3H]-U69,593 displacement. On the procedure:
(§1) Membranes from HEK-293 cells, CHO or U-2 OS cells expressing the recombinant human kappa opioid receptor (κ) were prepared by lysing cells in ice cold hypotonic buffer (2.5 mM MgCl2, 50 mM HEPES, pH 7.4) (10 mL/10 cm dish) followed by homogenization with a tissue grinder/Teflon pestle. Membranes were collected by centrifugation at 30,000×g for 15 min at 4° C. and pellets were resuspended in hypotonic buffer to a final concentration of 1-3 mg/mL. Protein concentrations were determined using the BioRad protein assay reagent with bovine serum albumen as standard. Aliquots of κ receptor membranes were stored at −80° C.
Radioligand dose displacement assays used 0.4 nM [^3H]-U69,593 (GE Healthcare, Piscataway, N.J.; 40 Ci/mmole) with 15 μg membrane protein (recombinant κ opioid receptor expressed in HEK 293 cells; in-house prep) in a final volume of 200 μl binding buffer (5% DMSO, 50 mM Trizma base, pH 7.4). Non-specific binding was determined in the presence of 10 μM unlabeled naloxone or U69,593. All reactions were performed in 96-well polypropylene plates for 1 hour at a temperature of about 25° C. Binding reactions were terminated by rapid filtration onto 96-well Unifilter GF/C filter plates (Perkin Elmer, Shelton, Conn.) presoaked in 0.5% polyethylenimine (Sigma). Harvesting was performed using a 96-well tissue harvester (Perkin Elmer, Shelton, Conn.) followed by five filtration washes with 200 μl ice-cold binding buffer. Filter plates were subsequently dried at 50° C. for 1-2 hours. Fifty μl/well scintillation cocktail (Perkin Elmer, Shelton, Conn.) was added and plates were counted in a Packard Top-Count for 1 min/well.
(§2) In TABLE 1, binding affinity of certain Compounds of the Invention to the μ- and κ-opioid receptors was determined as described above.

Assay [2] concerns the target T1, μ-opioid receptor (Homo sapiens (Human), UniProt P35372). Briefly: μ-opioid receptor radioligand dose-displacement binding assay ([3H]-diprenorphine). Conditions: [3H]-diprenorphine displacement. On the procedure: Radioligand dose-displacement binding assays for μ-opioid receptors used 0.3 nM [^3H]-diprenorphine (Perkin Elmer, Shelton, Conn.), with […] membrane protein/well in a final volume of 500 μl binding buffer (10 mM MgCl2, 1 mM EDTA, 5% DMSO, 50 mM HEPES, pH 7.4). Reactions were carried out in the absence or presence of increasing concentrations of unlabeled naloxone. All reactions were conducted in 96-deep well polypropylene plates for 2 hours at room temperature. Binding reactions were terminated by rapid filtration onto 96-well Unifilter GF/C filter plates (Perkin Elmer, Shelton, Conn.), presoaked in 0.5% polyethylenimine using a 96-well tissue harvester (Perkin Elmer, Shelton, Conn.) followed by performing three filtration washes with 500 μl of ice-cold binding buffer. Filter plates were subsequently dried at 50° C. for 2-3 hours. BetaScint scintillation cocktail (Perkin Elmer, Shelton, Conn.) was added (50 μl/well), and plates were counted using a Packard Top-Count for 1 min/well. The data were analyzed using the one-site competition curve fitting functions in GraphPad PRISM™ v. 3.0 or higher (San Diego, Calif.), or an in-house function for one-site competition curve-fitting.
as §2

Assay [3] concerns the target T1, μ-opioid receptor. The experiment in a line: μ-opioid receptor [35S]GTPγS functional assay, HEK-293 cells. The assay is classed as biochemical. To be noted: for Emax: relative to DAMGO. On the procedure:
(§3) [^35S]GTPγS functional assays were conducted using freshly thawed μ-receptor membranes prepared in-house from a cell line expressing recombinant μ opioid receptor in a HEK-293, CHO or U-2 OS cell background, or purchased from a commercial source (Perkin Elmer, Shelton, Conn.; or DiscovRx, Fremont, Calif.). Assay reactions were prepared by sequentially adding the following reagents to binding buffer (100 mM NaCl, 10 mM MgCl2, 20 mM HEPES, pH 7.4) on ice (final concentrations indicated): membrane protein (0.026 mg/mL), saponin ([…]), GDP ([…]) and [^35S]GTPγS (0.20 nM; Perkin Elmer, Shelton, Conn.). The prepared membrane solution (190 μl/well) was transferred to 96-shallow well polypropylene plates containing 10 μl of 20× concentrated stock solutions of the agonist [D-Ala^2, N-methyl-Phe^4 Gly-ol^5]-enkephalin (DAMGO) prepared in dimethyl sulfoxide (DMSO). Plates were incubated for 30 min at about 25° C. with shaking. Reactions were terminated by rapid filtration onto 96-well Unifilter GF/B filter plates (Perkin Elmer, Shelton, Conn.) using a 96-well tissue harvester (Perkin Elmer, Shelton, Conn.) followed by three filtration washes with 200 μl of ice-cold wash buffer (10 mM NaH2PO4, 10 mM Na2HPO4, pH 7.4). Filter plates were subsequently dried at 50° C. for 2-3 hours. BetaScint scintillation cocktail (Perkin Elmer, Shelton, Conn.) was added (50 μl/well) and plates were counted using a Packard Top-Count for 1 min/well. Data were analyzed using the sigmoidal dose-response curve fitting functions in GraphPad PRISM v. 3.0, or an in-house function for non-linear, sigmoidal dose-response curve-fitting.
(§4) μ GTP EC50 is the concentration of a compound providing 50% of the maximal response for the compound at a μ-opioid receptor.
(§5) μ GTP Emax (%) is the maximal effect elicited by a compound relative to the effect elicited by DAMGO, a standard μ agonist. Generally, the μ GTP Emax (%) value measures the efficacy of a compound to treat or prevent pain or other Conditions.
(§6) In TABLE 2, activity response of certain Compounds of the Invention to the μ- and κ-opioid receptors was determined as described above for functional assays using HEK-293 cells.

The target of assay [4] is T2, κ opioid receptor (Homo sapiens (Human), UniProt P41145). The experiment in a line: κ-opioid receptor [35S]GTPγS functional assay, HEK-293 cells. The assay is classed as biochemical. To be noted: for Emax: relative to U69,593. On the procedure: as §1
(§7) Functional [^35S]GTPγS binding assays were conducted as follows. κ opioid receptor membrane solution was prepared by sequentially adding final concentrations of 0.026 μg/μl κ membrane protein (in-house), 10 μg/mL saponin, 3 μM GDP and 0.20 nM [^35S]GTPγS to binding buffer (100 mM NaCl, 10 mM MgCl2, 20 mM HEPES, pH 7.4) on ice. The prepared membrane solution (190 μl/well) was transferred to 96-shallow well polypropylene plates containing 10 μl of 20× concentrated stock solutions of agonist prepared in DMSO. Plates were incubated for 30 min at a temperature of about 25° C. with shaking. Reactions were terminated by rapid filtration onto 96-well Unifilter GF/B filter plates (Perkin Elmer, Shelton, Conn.) using a 96-well tissue harvester (Packard) and followed by three filtration washes with 200 μl ice-cold binding buffer (10 mM NaH2PO4, 10 mM Na2HPO4, pH 7.4). Filter plates were subsequently dried at 50° C. for 2-3 hours. Fifty μl/well scintillation cocktail (Perkin Elmer, Shelton, Conn.) was added and plates were counted in a Packard Top-Count for 1 min/well.
(§8) κ GTP EC50 is the concentration of a compound providing 50% of the maximal response for the compound at a κ receptor.
(§9) κ GTP Emax (%) is the maximal effect elicited by a compound relative to the effect elicited by U69,593.
as §6

Assay [5] has as its target T1, μ-opioid receptor. Briefly: μ-opioid receptor [35S]GTPγS functional assay, U-2 OS cells. The assay is classed as biochemical. Conditions: for Emax: GTPγS, U-2 OS cells, relative to DAMGO. On the procedure:
as §3, §4, §5
(§10) In TABLE 3, activity response of certain Compounds of the Invention to the μ- and κ-opioid receptors was determined as described above for functional assays using U-2 OS cells.

For assay [6], the target named is T2, κ opioid receptor. Briefly: κ-opioid receptor [35S]GTPγS functional assay, U-2 OS cells. The assay is classed as biochemical. Conditions: for Emax: GTPγS, U-2 OS cells, relative to U69,593. On the procedure:
as §1, §7, §8, §9, §10

The structures appear in SMILES notation.

Take `COc1ccc2c(c1)[C@]13CCN(CC4CC4)[C@H](C2)[C@@H]1C1CC1C(=O)C3` (stereo partly drawn) [Compound 1, (1bR,2R,7bS)-12-(cyclopropylmethyl)-6-methoxy-1,1b,2,3,8,9a-hexahydro-2,7b-(epiminoethano)cyclopropa[a]phenanthren-9(1aH)-one]: the results for the Ki in assay [1] and in assay [2] were 8.87 ± 2.73 nM and 112 ± 26.9 nM, respectively. In addition, the results for the EC50 in assay [3] and in assay [4] were 53.6 ± 8.94 nM and 136 ± 25.4 nM, respectively. In addition, the maximum response (Emax) in assay [3] (GTPγS, HEK-293 cells) was found to be 63.6 ± 3.47%; in assay [4] (GTPγS, HEK-293 cells), 81 ± 2.27%.
For `COc1ccc2c(c1)[C@]13CCN(CC4CC4)[C@H](C2)[C@@H]1C1CC1C(O)C3` (stereo partly drawn) [Compound 2, (1bR,2R,7bS)-12-(cyclopropylmethyl)-6-methoxy-1,1a,1b,2,3,8,9,9a-octahydro-2,7b-(epiminoethano)cyclopropa[a]phenanthren-9-ol], in assay [1], the Ki is 23.3 ± 6.06 nM. For the same molecule, the values for the EC50 in assay [3] and in assay [4] were 414 ± 73 nM and 1120 ± 230 nM, respectively. The maximal response (Emax) in assay [3] (GTPγS, HEK-293 cells) came to 54.3 ± 4.67%; in assay [4] (GTPγS, HEK-293 cells) it was 76.7 ± 3.18%.
For the molecule `C=CCOC1C[C@]23CCN(CC4CC4)[C@H](Cc4ccc(OC)cc42)C3C2CC12` (stereo partly drawn) [Compound 3, (2R,7bS)-9-(allyloxy)-12-(cyclopropylmethyl)-6-methoxy-1,1a,1b,2,3,8,9,9a-octahydro-2,7b-(epiminoethano)cyclopropa[a]phenanthrene], the EC50 was 90.7 ± 17 nM in assay [5], 75.2 ± 9.24 nM in assay [3], 29.5 ± 4.5 nM in assay [6] and 116 ± 27.4 nM in assay [4]. Further, the Emax worked out at 52.7 ± 7.54% in assay [5]; 84.3 ± 5.81% in assay [3] (GTPγS, HEK-293 cells); 105 ± 4.67% in assay [6]; 66.7 ± 7.88% in assay [4] (GTPγS, HEK-293 cells). Moreover, the Ki in assay [1] was found to be 3.04 ± 0.6 nM; in assay [2], 30 ± 2.76 nM.
On to `C=C1C[C@@]23CCN(CC4CC4)[C@H](Cc4ccc(OC)cc42)C3C2CC12` (stereo partly drawn) [Compound 4, (2R,7bS)-12-(cyclopropylmethyl)-6-methoxy-9-methylene-1,1a,1b,2,3,8,9,9a-octahydro-2,7b-(epiminoethano)cyclopropa[a]phenanthrene], for which the concentration giving a half-maximal response (EC50) in assay [5] came to 83.1 ± 7.77 nM; in assay [3] it was 42.2 ± 3.59 nM; in assay [6] it was 8.95 ± 1.02 nM; in assay [4], 103 ± 36.9 nM. The maximal response (Emax) in assay [5] came to 66.7 ± 4.81%; in assay [3] (GTPγS, HEK-293 cells) it was 113 ± 3.38%; in assay [6] it was 102 ± 1.53%; in assay [4] (GTPγS, HEK-293 cells) it was 106 ± 1.67%. Also, the inhibitory constant (Ki) came out at 2.19 ± 0.6 nM in assay [1] and 142 ± 10.8 nM in assay [2].
`COc1ccc2c(c1)[C@]13CCN(CC4CC4)[C@H](C2)[C@@H]1[C@H]1C2CCC(CC2)[C@H]1C(=O)C3` [Compound 5, (4aR,4bR,5R,10bS,12aR)-15-(cyclopropylmethyl)-9-methoxy-2,3,4,4a,5,6,11,12a-octahydro-1H-5,10b-(epiminoethano)-1,4-ethanochrysen-12(4bH)-one]: the inhibition constant (Ki) was determined as 126 ± 21.9 nM in assay [1] and 242 ± 46 nM in assay [2]. Moreover, the EC50 in assay [3] (GTPγS, HEK-293 cells, read-out: μ EC50) came to 216 ± 16.6 nM; in assay [4] (GTPγS, HEK-293 cells, read-out: κ EC50), 1370 ± 419 nM. Besides, the maximal response (Emax) in assay [3] (GTPγS, HEK-293 cells) is 33 ± 4.71%; in assay [4] (GTPγS, HEK-293 cells) it was 19.3 ± 0.88%.
